{
  "source": "patent US20220281848A1",
  "about": "“PYRAZOLE-SUBSTITUTED PYRROLIDINONES AS HERBICIDES” (FMC Corporation, priority 2019, published 2022)",
  "test_system": "plants",
  "experiment": "Test D pre-emergence, other plants of Tables D1 and D3",
  "assay_type": "in vivo",
  "details": "for damage to plant (100=total damage to plant; 0=no damage to plant), SORVU: preemergent, 20 DAA; for damage to plant, ALOMY / damage to plant, AVEFA / damage to plant, BEAVA / damage to plant, BROTE / damage to plant, BRSNN / damage to plant, CHEAL / damage to plant, GALAP / damage to plant, HORVW / damage to plant, KCHSC / damage to plant, LOLPE / damage to plant, POAAN / damage to plant, POLCO / damage to plant, SINAR / damage to plant, STEME / damage to plant, VERPE: pre-emergence, 100=total damage, 0=no damage",
  "how_it_was_run": "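Seeds treated with herbicide safener; sown in soil; glasshouse, 16 h light, 65% humidity. Sprayed day 1 (pre) or ~day 12 (post). Spray in 0.2% v/v adjuvant. Scored 0–100 damage: 20 DAA pre, 15 d post.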",
  "data": [
    {"smiles": "CCn1nc([C@H]2CN(C)C(=O)[C@@H]2C(=O)Nc2cccc(F)c2F)c2c(F)cccc21", "note": "[Compound 7]", "values": [
      {"measurement": "damage to plant (100=total damage to plant; 0=no damage to plant), SORVU", "setting": "rate 130", "result": 20},
      {"measurement": "damage to plant (100=total damage to plant; 0=no damage to plant), SORVU", "setting": "rate 250", "result": 70},
      {"measurement": "damage to plant (100=total damage to plant; 0=no damage to plant), SORVU", "setting": "rate 500", "result": 80},
      {"measurement": "damage to plant, ALOMY", "setting": "rate 15, 20 DAA", "result": 0},
      {"measurement": "damage to plant, AVEFA", "setting": "rate 15, 20 DAA", "result": 0},
      {"measurement": "damage to plant, BEAVA", "setting": "rate 15, 20 DAA", "result": 0},
      {"measurement": "damage to plant, BROTE", "setting": "rate 15, 20 DAA", "result": 0},
      {"measurement": "damage to plant, BRSNN", "setting": "rate 15, 20 DAA", "result": 0},
      {"measurement": "damage to plant, CHEAL", "setting": "rate 15, 20 DAA", "result": 0},
      {"measurement": "damage to plant, GALAP", "setting": "rate 15, 20 DAA", "result": 0},
      {"measurement": "damage to plant, HORVW", "setting": "rate 15, 20 DAA", "result": 0},
      {"measurement": "damage to plant, KCHSC", "setting": "rate 15, 20 DAA", "result": 0},
      {"measurement": "damage to plant, LOLPE", "setting": "rate 15, 20 DAA", "result": 0},
      {"measurement": "damage to plant, POAAN", "setting": "rate 15, 20 DAA", "result": 0},
      {"measurement": "damage to plant, POLCO", "setting": "rate 15, 20 DAA", "result": 0},
      {"measurement": "damage to plant, SINAR", "setting": "rate 15, 20 DAA", "result": 0},
      {"measurement": "damage to plant, STEME", "setting": "rate 15, 20 DAA", "result": 0},
      {"measurement": "damage to plant, VERPE", "setting": "rate 15, 20 DAA", "result": 0},
      {"measurement": "damage to plant, ALOMY", "setting": "rate 30, 20 DAA", "result": 0},
      {"measurement": "damage to plant, AVEFA", "setting": "rate 30, 20 DAA", "result": 0},
      {"measurement": "damage to plant, BEAVA", "setting": "rate 30, 20 DAA", "result": 0},
      {"measurement": "damage to plant, BROTE", "setting": "rate 30, 20 DAA", "result": 0},
      {"measurement": "damage to plant, BRSNN", "setting": "rate 30, 20 DAA", "result": 0},
      {"measurement": "damage to plant, CHEAL", "setting": "rate 30, 20 DAA", "result": 0},
      {"measurement": "damage to plant, GALAP", "setting": "rate 30, 20 DAA", "result": 0},
      {"measurement": "damage to plant, HORVW", "setting": "rate 30, 20 DAA", "result": 0},
      {"measurement": "damage to plant, KCHSC", "setting": "rate 30, 20 DAA", "result": 0},
      {"measurement": "damage to plant, LOLPE", "setting": "rate 30, 20 DAA", "result": 0},
      {"measurement": "damage to plant, POAAN", "setting": "rate 30, 20 DAA", "result": 0},
      {"measurement": "damage to plant, POLCO", "setting": "rate 30, 20 DAA", "result": 0},
      {"measurement": "damage to plant, SINAR", "setting": "rate 30, 20 DAA", "result": 0},
      {"measurement": "damage to plant, STEME", "setting": "rate 30, 20 DAA", "result": 0},
      {"measurement": "damage to plant, VERPE", "setting": "rate 30, 20 DAA", "result": 0},
      {"measurement": "damage to plant, ALOMY", "setting": "rate 60, 20 DAA", "result": 0},
      {"measurement": "damage to plant, AVEFA", "setting": "rate 60, 20 DAA", "result": 0},
      {"measurement": "damage to plant, BEAVA", "setting": "rate 60, 20 DAA", "result": 0},
      {"measurement": "damage to plant, BROTE", "setting": "rate 60, 20 DAA", "result": 0},
      {"measurement": "damage to plant, BRSNN", "setting": "rate 60, 20 DAA", "result": 0},
      {"measurement": "damage to plant, CHEAL", "setting": "rate 60, 20 DAA", "result": 0},
      {"measurement": "damage to plant, GALAP", "setting": "rate 60, 20 DAA", "result": 0},
      {"measurement": "damage to plant, HORVW", "setting": "rate 60, 20 DAA", "result": 0},
      {"measurement": "damage to plant, KCHSC", "setting": "rate 60, 20 DAA", "result": 0},
      {"measurement": "damage to plant, LOLPE", "setting": "rate 60, 20 DAA", "result": 0},
      {"measurement": "damage to plant, POAAN", "setting": "rate 60, 20 DAA", "result": 0},
      {"measurement": "damage to plant, POLCO", "setting": "rate 60, 20 DAA", "result": 0},
      {"measurement": "damage to plant, SINAR", "setting": "rate 60, 20 DAA", "result": 0},
      {"measurement": "damage to plant, STEME", "setting": "rate 60, 20 DAA", "result": 0},
      {"measurement": "damage to plant, VERPE", "setting": "rate 60, 20 DAA", "result": 0},
      {"measurement": "damage to plant, ALOMY", "setting": "rate 130, 20 DAA", "result": 0},
      {"measurement": "damage to plant, AVEFA", "setting": "rate 130, 20 DAA", "result": 10},
      {"measurement": "damage to plant, BEAVA", "setting": "rate 130, 20 DAA", "result": 0},
      {"measurement": "damage to plant, BROTE", "setting": "rate 130, 20 DAA", "result": 0},
      {"measurement": "damage to plant, BRSNN", "setting": "rate 130, 20 DAA", "result": 0},
      {"measurement": "damage to plant, CHEAL", "setting": "rate 130, 20 DAA", "result": 0},
      {"measurement": "damage to plant, GALAP", "setting": "rate 130, 20 DAA", "result": 0},
      {"measurement": "damage to plant, HORVW", "setting": "rate 130, 20 DAA", "result": 0},
      {"measurement": "damage to plant, KCHSC", "setting": "rate 130, 20 DAA", "result": 0},
      {"measurement": "damage to plant, LOLPE", "setting": "rate 130, 20 DAA", "result": 0},
      {"measurement": "damage to plant, POAAN", "setting": "rate 130, 20 DAA", "result": 0},
      {"measurement": "damage to plant, POLCO", "setting": "rate 130, 20 DAA", "result": 0},
      {"measurement": "damage to plant, SINAR", "setting": "rate 130, 20 DAA", "result": 0},
      {"measurement": "damage to plant, STEME", "setting": "rate 130, 20 DAA", "result": 0},
      {"measurement": "damage to plant, VERPE", "setting": "rate 130, 20 DAA", "result": 0},
      {"measurement": "damage to plant, ALOMY", "setting": "rate 250, 20 DAA", "result": 0},
      {"measurement": "damage to plant, AVEFA", "setting": "rate 250, 20 DAA", "result": 20},
      {"measurement": "damage to plant, BEAVA", "setting": "rate 250, 20 DAA", "result": 0},
      {"measurement": "damage to plant, BROTE", "setting": "rate 250, 20 DAA", "result": 0},
      {"measurement": "damage to plant, BRSNN", "setting": "rate 250, 20 DAA", "result": 0},
      {"measurement": "damage to plant, CHEAL", "setting": "rate 250, 20 DAA", "result": 0},
      {"measurement": "damage to plant, GALAP", "setting": "rate 250, 20 DAA", "result": 0},
      {"measurement": "damage to plant, HORVW", "setting": "rate 250, 20 DAA", "result": 0},
      {"measurement": "damage to plant, KCHSC", "setting": "rate 250, 20 DAA", "result": 0},
      {"measurement": "damage to plant, LOLPE", "setting": "rate 250, 20 DAA", "result": 0},
      {"measurement": "damage to plant, POAAN", "setting": "rate 250, 20 DAA", "result": 0},
      {"measurement": "damage to plant, POLCO", "setting": "rate 250, 20 DAA", "result": 0},
      {"measurement": "damage to plant, SINAR", "setting": "rate 250, 20 DAA", "result": 0},
      {"measurement": "damage to plant, STEME", "setting": "rate 250, 20 DAA", "result": 0},
      {"measurement": "damage to plant, VERPE", "setting": "rate 250, 20 DAA", "result": 0},
      {"measurement": "damage to plant, ALOMY", "setting": "rate 500, 20 DAA", "result": 0},
      {"measurement": "damage to plant, AVEFA", "setting": "rate 500, 20 DAA", "result": 50},
      {"measurement": "damage to plant, BEAVA", "setting": "rate 500, 20 DAA", "result": 0},
      {"measurement": "damage to plant, BROTE", "setting": "rate 500, 20 DAA", "result": 0},
      {"measurement": "damage to plant, BRSNN", "setting": "rate 500, 20 DAA", "result": 0},
      {"measurement": "damage to plant, CHEAL", "setting": "rate 500, 20 DAA", "result": 0},
      {"measurement": "damage to plant, GALAP", "setting": "rate 500, 20 DAA", "result": 0},
      {"measurement": "damage to plant, HORVW", "setting": "rate 500, 20 DAA", "result": 0},
      {"measurement": "damage to plant, KCHSC", "setting": "rate 500, 20 DAA", "result": 0},
      {"measurement": "damage to plant, LOLPE", "setting": "rate 500, 20 DAA", "result": 0},
      {"measurement": "damage to plant, POAAN", "setting": "rate 500, 20 DAA", "result": 0},
      {"measurement": "damage to plant, POLCO", "setting": "rate 500, 20 DAA", "result": 0},
      {"measurement": "damage to plant, SINAR", "setting": "rate 500, 20 DAA", "result": 0},
      {"measurement": "damage to plant, STEME", "setting": "rate 500, 20 DAA", "result": 0},
      {"measurement": "damage to plant, VERPE", "setting": "rate 500, 20 DAA", "result": 0}
    ]}
  ]
}
